These are literature values, as cited in patent US20220040193A1, “FORMULATIONS OF PHOSPHOINOSITIDE 3-KINASE INHIBITORS” (VENTHERA, INC., priority 2020, published 2022).

Regarding `Oc1cccc(-c2nc(N3CCOCC3)c3sccc3n2)c1` [MTPP, 3-(4-morpholinothieno(3,2-d)pyrimidin-2-yl)phenol], in the series with cancer cell, the “cancer cell growth inhibiting activity” value was “cancer cell growth inhibiting activity”. Besides, in the series with PI3K, the PI3K inhibiting activity result is given as “excellent PI3K inhibiting activity”.
